Test results as given in US20240261274A1, “TREATMENT OF MYC-DRIVEN CANCERS WITH GSPT1 DEGRADERS” (MONTE ROSA THERAPEUTICS, INC., priority 2021, published 2024).

Key:
GSPT1 [1] = target: T1, GSPT1 (Homo sapiens, UniProt P15170+Q96SW2); experiment: GSPT1 degradation by compound 210 in NSCLC cells; type: cell-based; parameters: endogenous in cells
Experimental: GSPT1 was degraded by compound 210 after six hours of treatment in high N-Myc NCI-H1155 and ABC-1 cells with a DC50 of 3 nM and 22 nM, respectively (x-axis represents M concentration of compound 210; y-axis represents the viability in %).

[2] = tested on: WSU-DLCL2 triple hit lymphoma cell line derived xenograft; experiment: WSU-DLCL2 triple hit lymphoma CDX efficacy study; type: in vivo, immunodeficient mice; settings: oral daily 3 mg/kg and 10 mg/kg
Experimental: Additionally, cell line derived xenograft (CDX) models were produced for the triple hit lymphoma cell line (WSU-DLCL2) in immunodeficient mice. Oral dosing of Compound 345 was performed daily at doses of 3 mg/kg and 10 mg/kg as well as the CHOP combination (a well-known lymphoma treatment regimen) and a no-drug vehicle control. Tumor volumes were measured (mm^3) at regular intervals over the course of up to 30 days depending on the animal.
In vivo efficacy study: NCI-H1155, MM1 S, WSU-DLCL2, DOHH-2 cells were maintained in vitro in individual medium and conditions as recommended by the providers and incubated at 37° C. in an atmosphere of 5% CO2 in air. 0.5 million (NCI-H1155), 10 million (MM1S) or 5 million (WSU-DLCL2 and DOHH-2) cells were resuspended in typically 0.1-0.2 mL of PBS with Matrigel (50:50) and were inoculated into 6-8 weeks old BALB/c nude female (NCI-H115, WSU-DLCL2), NOD/SCID (MM1S) or CB-17SCID (DOHH-2) mice and allowed to grow to 150-200 mm3 in size. […] Tumor volumes were measured at least twice weekly during the treatment period using a caliper and the volume was expressed in mm3 using the formula: V=0.5 a×b2 where a and b were the long and short diameters of the tumor, respectively. […] Data are expressed as the mean±SEM. All data was analyzed using GraphPad Prism 8.1.2 (GraphPad).

GSPT1 [3] = target: T1, GSPT1; experiment: GSPT1 levels in NCI-H1155 tumors (Compound 345); type: in vivo, mice; parameters: from tissue; host or cells: NCI-H1155 subcutaneous xenograft tumours from BALB/c nude mice; settings: day 5, 1 mg/kg and 10 mg/kg, strongest effect at 10 mg/kg
Experimental: Additionally, plasma concentrations of Compound 345 and levels of GSPT1 and […] (relative to vehicle-only control) were measured in a time-course experiment on day 5 for the animals receiving 1 mg/kg and 10 mg/kg.
GSPT1 and N-Myc western blotting analyses from NCI-H1155 tumors: The NCI-H1155 model was run as described previously and tumors were harvested following 5 consecutive daily PO doses of Compound 345 at 1.0 and 10 mg/kg. Tumors were lysed in 1× lysis buffer (CST, Cat. No. 9803, Lot No. 0000122383) supplemented with protease (Sigma, Cat. No. P8340) and phosphatase ((Sigma, Cat. No. P5726 and P0044) cocktail inhibitors using TissueLyser II (QIAGEN #85300). Samples were spined at 15,000 rpm in an Eppendorf microfuge for 15 min at 4° C. The protein supernatant was collected in a new 1.5 ml tube and the protein concentrations were determined by the Pierce BCA kit (Thermo, Cat. No. 23225). The tumor lysate samples were mixed with 5×SDS-PAGE loading buffer boiled for 5 min and brought to ice for 5 min. 30 μg of protein was loaded onto a NUPAGE 4-12% BT gel (Invitrogen, Cat. No. NPO336BOX) for separation. […] Membranes were imaged on the Odyssey imager (Li-COR) using fluorescence or cheminulinescence detection. […] Data are expressed as mean±SEM derived from at least three different mice and collected at 0, 2, 6, 12, 24, 48, 72 and 96 hr as indicated.

T1 sequence (P15170 whole entry): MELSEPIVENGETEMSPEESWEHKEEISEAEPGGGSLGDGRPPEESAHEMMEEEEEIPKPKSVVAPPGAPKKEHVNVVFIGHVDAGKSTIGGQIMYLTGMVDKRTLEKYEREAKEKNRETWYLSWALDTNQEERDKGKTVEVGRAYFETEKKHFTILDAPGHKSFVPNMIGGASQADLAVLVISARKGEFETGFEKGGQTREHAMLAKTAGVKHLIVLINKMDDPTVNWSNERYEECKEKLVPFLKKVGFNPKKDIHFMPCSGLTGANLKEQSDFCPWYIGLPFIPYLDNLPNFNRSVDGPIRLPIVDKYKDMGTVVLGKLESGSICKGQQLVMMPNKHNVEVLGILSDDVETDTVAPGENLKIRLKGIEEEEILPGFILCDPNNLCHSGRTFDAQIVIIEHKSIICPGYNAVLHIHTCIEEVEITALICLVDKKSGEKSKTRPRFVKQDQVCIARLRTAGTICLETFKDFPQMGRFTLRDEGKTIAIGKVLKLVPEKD
T1 sequence (Q96SW2 whole entry): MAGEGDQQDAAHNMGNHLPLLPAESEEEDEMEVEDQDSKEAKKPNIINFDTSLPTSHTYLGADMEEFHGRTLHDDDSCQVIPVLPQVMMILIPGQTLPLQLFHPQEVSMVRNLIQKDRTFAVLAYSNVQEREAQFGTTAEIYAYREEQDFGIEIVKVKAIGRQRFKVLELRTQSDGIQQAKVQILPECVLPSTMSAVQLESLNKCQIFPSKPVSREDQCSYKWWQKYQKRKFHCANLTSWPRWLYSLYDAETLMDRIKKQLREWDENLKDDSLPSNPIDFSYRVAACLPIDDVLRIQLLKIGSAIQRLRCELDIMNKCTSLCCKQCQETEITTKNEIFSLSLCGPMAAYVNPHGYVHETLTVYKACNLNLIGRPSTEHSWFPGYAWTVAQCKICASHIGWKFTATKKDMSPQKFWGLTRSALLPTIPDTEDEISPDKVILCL
T1 sequence (Q16531 whole entry partner): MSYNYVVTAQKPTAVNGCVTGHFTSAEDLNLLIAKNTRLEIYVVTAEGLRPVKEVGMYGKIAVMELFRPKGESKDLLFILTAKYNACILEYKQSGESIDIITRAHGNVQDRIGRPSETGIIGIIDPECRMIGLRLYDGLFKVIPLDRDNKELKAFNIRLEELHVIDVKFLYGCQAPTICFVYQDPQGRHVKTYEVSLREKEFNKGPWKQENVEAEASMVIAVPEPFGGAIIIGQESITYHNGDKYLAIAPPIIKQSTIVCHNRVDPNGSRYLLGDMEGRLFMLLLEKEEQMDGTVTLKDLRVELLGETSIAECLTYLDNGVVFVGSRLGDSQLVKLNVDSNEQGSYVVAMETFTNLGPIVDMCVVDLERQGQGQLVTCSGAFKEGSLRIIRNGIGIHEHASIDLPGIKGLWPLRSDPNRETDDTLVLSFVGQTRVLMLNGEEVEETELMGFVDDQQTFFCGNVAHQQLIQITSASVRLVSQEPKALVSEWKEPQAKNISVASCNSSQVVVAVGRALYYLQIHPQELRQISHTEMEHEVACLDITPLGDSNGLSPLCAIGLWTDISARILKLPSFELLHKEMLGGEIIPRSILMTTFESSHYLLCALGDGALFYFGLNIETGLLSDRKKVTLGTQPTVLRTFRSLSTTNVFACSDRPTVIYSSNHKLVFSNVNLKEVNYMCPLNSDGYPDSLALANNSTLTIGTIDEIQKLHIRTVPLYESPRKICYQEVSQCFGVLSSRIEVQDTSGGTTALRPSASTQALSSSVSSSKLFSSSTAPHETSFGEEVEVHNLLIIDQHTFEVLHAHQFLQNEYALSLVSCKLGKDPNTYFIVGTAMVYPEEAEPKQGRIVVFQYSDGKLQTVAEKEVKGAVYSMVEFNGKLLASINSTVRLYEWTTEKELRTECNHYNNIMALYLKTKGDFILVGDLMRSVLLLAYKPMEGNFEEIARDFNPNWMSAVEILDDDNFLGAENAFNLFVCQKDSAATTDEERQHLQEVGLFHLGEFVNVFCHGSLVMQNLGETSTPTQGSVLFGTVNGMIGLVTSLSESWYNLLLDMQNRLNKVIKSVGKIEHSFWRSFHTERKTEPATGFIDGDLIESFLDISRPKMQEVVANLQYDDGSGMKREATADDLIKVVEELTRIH

Row | SMILES | relative levels of GSPT1 versus concentration (GSPT1 [1]) | extent of GSPT1 degradation (GSPT1 [1]; NCI-H1155 and ABC-1 cells) | tumor volume [2] | GSPT1 level relative to vehicle-only control (GSPT1 [3])
1 | Cc1ccc(NC(=O)OCc2ccc3c(c2)C(=O)N(C2CCC(=O)NC2=O)C3)cc1Cl (stereo not shown) [Compound 210] | degrades GSPT1 in a concentration dependent manner | complete degradation of GSPT1 |  | 
2 | O=C1CCC(N2Cc3ccc(COC(=O)Nc4cc(OC(F)(F)F)ccc4F)cc3C2=O)C(=O)N1 (stereo not shown) [Compound 345, (2-(2,6-dioxopiperidin-3-yl)-3-oxoisoindolin-5-yl)methyl(2-fluoro-5-(trifluoromethoxy)phenyl)carbamate] |  |  | anti-tumor activity | substantially reduced
